Data from patent US20060069132A1, “Azolecarboxamide herbicides” (priority 2004, published 2006).

Experiments:
[1] = system: giant foxtail; assay: Test A pre-/postemergence herbicide test; type: in vivo, Setaria faberi
How it was run: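 Pre: seeded sandy loam, directed soil spray, compound in non-phytotoxic solvent + surfactant. Post: 1–2-leaf plants (2–10 cm), sprayed to runoff. Greenhouse ~10 d; visual injury vs untreated, 0–100 scale.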

[2] = system: giant foxtail; assay: Test B pre-/postemergence herbicide test; type: in vivo, Setaria faberi
How it was run: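 Test chemicals in a non-phytotoxic solvent mixture with surfactant were applied preemergence to seeded species and postemergence to plants 2-18 cm tall (1- to 4-leaf stage); rice and barnyardgrass were also tested in a flooded paddy at the 2-leaf stage. Visual rating versus controls after 13-15 days in greenhouse, scale 0 (no effect) to 100 (complete control).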

[3] = system: cocklebur; assay: Test C pre-/postemergence herbicide test; type: in vivo, Xanthium strumarium; conditions: for Cocklebur plant response rating: 500 g ai/ha
How it was run: (§1)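 Visual injury scores run from 0 (no effect) to 100 (complete control), assessed relative to untreated controls 12 to 14 days after treatment in the greenhouse. Chemicals were formulated in a non-phytotoxic solvent mixture with surfactant and applied to soil after planting or to emerged plants at the 1- to 4-leaf stage.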

[4] = system: corn; assay: Test C pre-/postemergence herbicide test; type: in vivo, Zea mays; conditions: for Corn plant response rating: 500 g ai/ha
How it was run: as §1

[5] = system: kochia; assay: Test C pre-/postemergence herbicide test; type: in vivo, Kochia scoparia; conditions: for Kochia plant response rating: 500 g ai/ha
How it was run: as §1

[6] = system: yellow nutsedge; assay: Test C pre-/postemergence herbicide test; type: in vivo, Cyperus esculentus; conditions: for Nutsedge, Yellow plant response rating: 500 g ai/ha
How it was run: as §1

[7] = system: pigweed; assay: Test C pre-/postemergence herbicide test; type: in vivo, Amaranthus retroflexus; conditions: for Pigweed plant response rating: 500 g ai/ha
How it was run: as §1

[8] = Postemergence, 500 g ai/ha, 0 to 100 scale, 0 no effect, 100 complete control
[9] = Postemergence, 2000 g ai/ha, 0 to 100 scale, 0 no effect, 100 complete control
[10] = Preemergence, 500 g ai/ha, visual rating, 0 to 100 scale (0 no effect, 100 complete control)
[11] = Preemergence, 2000 g ai/ha, visual rating, 0 to 100 scale (0 no effect, 100 complete control)
[12] = 500 g ai/ha, visual rating 0-100, 0 no effect, 100 complete control, preemergence
[13] = Postemergence, 500 g ai/ha, visual rating after 13 to 15 days, scale 0 (no effect) to 100 (complete control)
[14] = postemergence, 125 g ai/ha, visual rating, scale 0 (no effect) to 100 (complete control)
[15] = preemergence, 125 g ai/ha, 0 to 100 scale, 0 is no effect, 100 is complete control
[16] = 31 g ai/ha, preemergence, scale 0 to 100
[17] = 125 g ai/ha, scale 0 (no effect) to 100 (complete control), visual, 12 to 14 days, preemergence
[18] = 250 g ai/ha, scale 0 to 100 (0 no effect, 100 complete control), visual, 12 to 14 days, preemergence
[19] = Postemergence, 250 g ai/ha, scale 0 to 100, 0 no effect, 100 complete control
[20] = postemergence, 125 g ai/ha, scale 0 to 100
[21] = postemergence, 31 g ai/ha, scale 0 to 100
[22] = postemergence, 62 g ai/ha, scale 0 to 100
[23] = Preemergence, scale 0 to 100, 0 no effect, 100 complete control
[24] = 125 g ai/ha, scale 0-100, preemergence
[25] = Postemergence, 125 g ai/ha, scale 0 to 100, 0 no effect, 100 complete control

SMILES: C=Cn1nc(C(C)(C)C)cc1C(=O)Nc1cccc(C(C)=NO)c1 [Compound 114]
- Foxtail, Giant plant response rating [1, 8]: 50
- Plant response rating, Foxtail, Giant [1, 9]: 55
- Foxtail, Giant plant response rating [1, 10]: 30
- Foxtail, Giant plant response rating [1, 11]: 45
- Plant response rating, Foxtail, Giant [2, 12]: 90
- Plant response rating, Foxtail, Giant [2, 13]: 30
- Foxtail, Giant plant response rating [2, 14]: 30
- Plant response rating, Foxtail, Giant [2, 15]: 50
- Plant response rating, Cocklebur [3, 16]: 0
- Plant response rating (0 = no effect, 100 = complete control), Cocklebur ([3]; 62 g ai/ha, preemergence): 20
- Plant response rating, Cocklebur [3, 17]: 20
- Plant response rating, Cocklebur [3, 18]: 30
- Plant response rating, Cocklebur [3, 19]: 30
- Plant response rating, Cocklebur [3, 20]: 30
- Plant response rating, Cocklebur [3, 21]: 30
- Plant response rating, Cocklebur [3, 22]: 30
- Plant response rating, Corn [4, 16]: 10
- Plant response rating (0 = no effect, 100 = complete control), Corn ([4]; 62 g ai/ha, preemergence): 10
- Plant response rating, Corn [4, 17]: 10
- Plant response rating, Corn [4, 18]: 10
- Plant response rating, Corn [4, 19]: 40
- Plant response rating, Corn [4, 20]: 30
- Plant response rating, Corn [4, 22]: 30
- Plant response rating, Kochia [5, 16]: 90
- Plant response rating (0 = no effect, 100 = complete control), Kochia ([5]; 62 g ai/ha, preemergence): 90
- Plant response rating, Kochia [5, 17]: 90
- Plant response rating, Kochia [5, 19]: 100
- Plant response rating, Kochia [5, 20]: 80
- Plant response rating, Kochia [5, 22]: 80
- Plant response rating, Nutsedge, Yellow [6, 16]: 0
- Plant response rating (0 = no effect, 100 = complete control), Nutsedge, Yellow ([6]; 62 g ai/ha, preemergence): 0
- Plant response rating, Nutsedge, Yellow [6, 17]: 0
- Plant response rating, Nutsedge, Yellow [6, 19]: 10
- Plant response rating, Nutsedge, Yellow [6, 20]: 0
- Plant response rating, Nutsedge, Yellow [6, 22]: 0
- Plant response rating, Pigweed [7, 16]: 0
- Plant response rating (0 = no effect, 100 = complete control), Pigweed ([7]; 62 g ai/ha, preemergence): 100
- Plant response rating, Pigweed [7, 17]: 100
- Plant response rating, Pigweed [7, 19]: 100
- Plant response rating, Pigweed [7, 20]: 100
- Plant response rating, Pigweed [7, 22]: 100

SMILES: CCn1nc(C(C)(C)C)cc1C(=O)Nc1cccc(SC(F)(F)F)c1 [Compound 130]
- Foxtail, Giant plant response rating [1, 8]: 10
- Plant response rating, Foxtail, Giant [1, 9]: 10
- Foxtail, Giant plant response rating [1, 10]: 50
- Foxtail, Giant plant response rating [1, 11]: 55
- Plant response rating, Foxtail, Giant [2, 12]: 70
- Foxtail, Giant plant response rating [2, 14]: 20
- Foxtail, Giant plant response rating ([2]; postemergence, 500 g ai/ha, visual rating, scale 0 (no effect) to 100 (complete control)): 60
- Plant response rating, Foxtail, Giant [2, 15]: 20
- Plant response rating (0 = no effect, 100 = complete control), Cocklebur ([3]; 62 g ai/ha, preemergence): 0
- Plant response rating, Cocklebur [3, 18]: 70
- Cocklebur plant response rating ([3]; Postemergence, scale 0 to 100): 100
- Plant response rating, Cocklebur [3, 19]: 90
- Cocklebur plant response rating [3, 23]: 100
- Plant response rating, Cocklebur [3, 20]: 30
- Plant response rating (0 = no effect, 100 = complete control), Corn ([4]; 62 g ai/ha, preemergence): 0
- Plant response rating, Corn [4, 17]: 5
- Plant response rating, Corn [4, 18]: 5
- Corn plant response rating ([4]; Postemergence, scale 0 to 100): 50
- Plant response rating, Corn [4, 19]: 45
- Corn plant response rating [4, 23]: 10
- Plant response rating, Corn [4, 20]: 45
- Plant response rating (0 = no effect, 100 = complete control), Kochia ([5]; 62 g ai/ha, preemergence): 0
- Plant response rating, Kochia [5, 17]: 0
- Kochia plant response rating ([5]; Postemergence, scale 0 to 100): 85
- Plant response rating, Kochia [5, 19]: 70
- Kochia plant response rating [5, 23]: 100
- Plant response rating, Kochia [5, 20]: 30
- Plant response rating (0 = no effect, 100 = complete control), Nutsedge, Yellow ([6]; 62 g ai/ha, preemergence): 0
- Plant response rating, Nutsedge, Yellow [6, 17]: 0
- Nutsedge, Yellow plant response rating ([6]; Postemergence, scale 0 to 100): 0
- Plant response rating, Nutsedge, Yellow [6, 19]: 0
- Nutsedge, Yellow plant response rating [6, 23]: 0
- Plant response rating, Nutsedge, Yellow [6, 20]: 0
- Plant response rating (0 = no effect, 100 = complete control), Pigweed ([7]; 62 g ai/ha, preemergence): 80
- Plant response rating, Pigweed [7, 17]: 90
- Pigweed plant response rating ([7]; Postemergence, scale 0 to 100): 100
- Plant response rating, Pigweed [7, 19]: 100
- Pigweed plant response rating [7, 23]: 100
- Plant response rating, Pigweed [7, 20]: 100

SMILES: C=Cn1nc(C(C)(C)C)cc1C(=O)Nc1cccc(C(=O)NCC)c1 [Compound 33]
- Plant response rating, Foxtail, Giant [1, 8]: 70
- Plant response rating, Foxtail, Giant [1, 9]: 85
- Foxtail, Giant plant response rating [1, 10]: 80
- Foxtail, Giant plant response rating ([1]; Preemergence, 2000 g ai/ha, 0 to 100 scale, 0 no effect, 100 complete control): 95
- Foxtail, Giant plant response rating ([2]; Postemergence, 125 g ai/ha, scale 0 (no effect) to 100 (complete control)): 30
- Plant response rating, Foxtail, Giant [2, 13]: 30
- Foxtail, Giant plant response rating ([2]; Preemergence, 500 g ai/ha, scale 0 to 100): 100
- Plant response rating, Foxtail, Giant [2, 15]: 80
- Plant response rating, Cocklebur [3, 16]: 0
- Plant response rating (0 = no effect, 100 = complete control), Cocklebur ([3]; 62 g ai/ha, preemergence): 0
- Plant response rating, Cocklebur [3, 24]: 30
- Plant response rating, Cocklebur [3, 25]: 70
- Plant response rating, Cocklebur ([3]; postemergence, 16 g ai/ha, scale 0 to 100): 20
- Plant response rating, Cocklebur [3, 22]: 50
- Plant response rating, Corn [4, 16]: 0
- Plant response rating (0 = no effect, 100 = complete control), Corn ([4]; 62 g ai/ha, preemergence): 0
- Plant response rating, Corn [4, 24]: 0
- Plant response rating, Corn [4, 25]: 40
- Plant response rating, Corn [4, 21]: 40
- Plant response rating, Corn [4, 22]: 40
- Plant response rating, Kochia [5, 16]: 80
- Plant response rating (0 = no effect, 100 = complete control), Kochia ([5]; 62 g ai/ha, preemergence): 100
- Plant response rating, Kochia [5, 24]: 100
- Plant response rating, Kochia [5, 25]: 90
- Plant response rating, Kochia [5, 21]: 60
- Plant response rating, Kochia [5, 22]: 90
- Plant response rating, Nutsedge, Yellow ([6]; 16 g ai/ha, scale 0 to 100, last section of Table C, preemergence): 0
- Plant response rating, Nutsedge, Yellow [6, 16]: 0
- Plant response rating (0 = no effect, 100 = complete control), Nutsedge, Yellow ([6]; 62 g ai/ha, preemergence): 0
- Plant response rating, Nutsedge, Yellow [6, 20]: 10
- Plant response rating, Nutsedge, Yellow [6, 21]: 0
- Plant response rating, Nutsedge, Yellow [6, 22]: 0
- Plant response rating, Pigweed [7, 16]: 30
- Plant response rating (0 = no effect, 100 = complete control), Pigweed ([7]; 62 g ai/ha, preemergence): 50
- Plant response rating, Pigweed [7, 20]: 100
- Plant response rating, Pigweed [7, 21]: 90
- Plant response rating, Pigweed [7, 22]: 100
